Test: isobaric coefficient of expansion; xn = mol fraction of the nth substance listed
Conditions: calorimetric method

CCCCCCO [hexan-1-ol] + CCCCCC
isobaric coefficient of expansion
Conditions | 5000 kPa | 10000 kPa | 15000 kPa | 20000 kPa | 25000 kPa | 30000 kPa | 35000 kPa | 40000 kPa | 45000 kPa | 50000 kPa
328.15 K, x1 = 0.0321 | 0.00143 1/K | 0.00135 1/K | 0.00128 1/K | 0.00122 1/K | 0.00117 1/K | 0.00112 1/K | 0.00108 1/K | 0.00104 1/K | 0.00101 1/K | 0.000976 1/K
328.15 K, x1 = 0.041 | 0.00143 1/K | 0.00135 1/K | 0.00128 1/K | 0.00122 1/K | 0.00117 1/K | 0.00112 1/K | 0.00108 1/K | 0.00103 1/K | 0.001 1/K | 0.000972 1/K
328.15 K, x1 = 0.0946 | 0.00141 1/K | 0.00133 1/K | 0.00126 1/K | 0.0012 1/K | 0.00116 1/K | 0.00111 1/K | 0.00107 1/K | 0.00103 1/K | 0.001 1/K | 0.000972 1/K
328.15 K, x1 = 0.1679 | 0.00136 1/K | 0.0013 1/K | 0.00123 1/K | 0.00118 1/K | 0.00113 1/K | 0.00109 1/K | 0.00105 1/K | 0.00101 1/K | 0.000982 1/K | 0.000952 1/K
328.15 K, x1 = 0.2153 | 0.00134 1/K | 0.00127 1/K | 0.00121 1/K | 0.00116 1/K | 0.00112 1/K | 0.00107 1/K | 0.00104 1/K | 0.000999 1/K | 0.000971 1/K | 0.000945 1/K
328.15 K, x1 = 0.3016 | 0.00129 1/K | 0.00122 1/K | 0.00117 1/K | 0.00112 1/K | 0.00108 1/K | 0.00104 1/K | 0.00101 1/K | 0.000975 1/K | 0.000948 1/K | 0.000922 1/K
328.15 K, x1 = 0.4075 | 0.00123 1/K | 0.00117 1/K | 0.00113 1/K | 0.00108 1/K | 0.00104 1/K | 0.00101 1/K | 0.000977 1/K | 0.000948 1/K | 0.00092 1/K | 0.000894 1/K
328.15 K, x1 = 0.503 | 0.00118 1/K | 0.00113 1/K | 0.00108 1/K | 0.00104 1/K | 0.00101 1/K | 0.000979 1/K | 0.000952 1/K | 0.000922 1/K | 0.000899 1/K | 0.000877 1/K
328.15 K, x1 = 0.594 | 0.00113 1/K | 0.00108 1/K | 0.00105 1/K | 0.00101 1/K | 0.00098 1/K | 0.000949 1/K | 0.000921 1/K | 0.000893 1/K | 0.000872 1/K | 0.000851 1/K
328.15 K, x1 = 0.6827 | 0.00108 1/K | 0.00104 1/K | 0.00101 1/K | 0.000973 1/K | 0.000945 1/K | 0.000918 1/K | 0.000891 1/K | 0.000865 1/K | 0.000843 1/K | 0.000823 1/K
328.15 K, x1 = 0.8013 | 0.00102 1/K | 0.000985 1/K | 0.000957 1/K | 0.000926 1/K | 0.0009 1/K | 0.000874 1/K | 0.00085 1/K | 0.000825 1/K | 0.000808 1/K | 0.000789 1/K
328.15 K, x1 = 0.8934 | 0.000972 1/K | 0.000945 1/K | 0.000917 1/K | 0.000889 1/K | 0.000869 1/K | 0.000845 1/K | 0.000823 1/K | 0.000802 1/K | 0.000783 1/K | 0.000767 1/K
328.15 K, x1 = 1 | 0.000929 1/K | 0.0009 1/K | 0.000876 1/K | 0.000854 1/K | 0.000833 1/K | 0.000813 1/K | 0.000794 1/K | 0.000776 1/K | 0.000759 1/K | 0.000745 1/K
348.15 K, x1 = 0.0321 | 0.00153 1/K | 0.00141 1/K | 0.00133 1/K | 0.00126 1/K | 0.00119 1/K | 0.00114 1/K | 0.00109 1/K | 0.00105 1/K | 0.00101 1/K | 0.00098 1/K
348.15 K, x1 = 0.041 | 0.00152 1/K | 0.00142 1/K | 0.00133 1/K | 0.00126 1/K | 0.0012 1/K | 0.00114 1/K | 0.0011 1/K | 0.00105 1/K | 0.00101 1/K | 0.00098 1/K
348.15 K, x1 = 0.0946 | 0.00151 1/K | 0.00141 1/K | 0.00133 1/K | 0.00126 1/K | 0.00119 1/K | 0.00114 1/K | 0.0011 1/K | 0.00105 1/K | 0.00102 1/K | 0.000988 1/K
348.15 K, x1 = 0.1679 | 0.00147 1/K | 0.00138 1/K | 0.0013 1/K | 0.00123 1/K | 0.00118 1/K | 0.00113 1/K | 0.00108 1/K | 0.00104 1/K | 0.001 1/K | 0.000967 1/K
348.15 K, x1 = 0.2153 | 0.00144 1/K | 0.00135 1/K | 0.00128 1/K | 0.00122 1/K | 0.00116 1/K | 0.00111 1/K | 0.00107 1/K | 0.00103 1/K | 0.000999 1/K | 0.000968 1/K
348.15 K, x1 = 0.3016 | 0.00138 1/K | 0.0013 1/K | 0.00124 1/K | 0.00118 1/K | 0.00112 1/K | 0.00108 1/K | 0.00104 1/K | 0.00101 1/K | 0.000976 1/K | 0.000944 1/K
348.15 K, x1 = 0.4075 | 0.00132 1/K | 0.00125 1/K | 0.00119 1/K | 0.00113 1/K | 0.00109 1/K | 0.00105 1/K | 0.00101 1/K | 0.000981 1/K | 0.00095 1/K | 0.000924 1/K
348.15 K, x1 = 0.503 | 0.00126 1/K | 0.0012 1/K | 0.00114 1/K | 0.0011 1/K | 0.00106 1/K | 0.00102 1/K | 0.000989 1/K | 0.000956 1/K | 0.000929 1/K | 0.000904 1/K
348.15 K, x1 = 0.594 | 0.00121 1/K | 0.00115 1/K | 0.0011 1/K | 0.00106 1/K | 0.00102 1/K | 0.000993 1/K | 0.00096 1/K | 0.000928 1/K | 0.000904 1/K | 0.000882 1/K
348.15 K, x1 = 0.6827 | 0.00116 1/K | 0.00111 1/K | 0.00107 1/K | 0.00103 1/K | 0.000994 1/K | 0.000963 1/K | 0.000933 1/K | 0.000903 1/K | 0.000881 1/K | 0.000859 1/K
348.15 K, x1 = 0.8013 | 0.00109 1/K | 0.00105 1/K | 0.00101 1/K | 0.000979 1/K | 0.000947 1/K | 0.00092 1/K | 0.000892 1/K | 0.000866 1/K | 0.000845 1/K | 0.000824 1/K
348.15 K, x1 = 0.8934 | 0.00104 1/K | 0.001 1/K | 0.00097 1/K | 0.00094 1/K | 0.000911 1/K | 0.000886 1/K | 0.000862 1/K | 0.000838 1/K | 0.000817 1/K | 0.000797 1/K
348.15 K, x1 = 1 | 0.000995 1/K | 0.00096 1/K | 0.000929 1/K | 0.000903 1/K | 0.000875 1/K | 0.000852 1/K | 0.000831 1/K | 0.000808 1/K | 0.000791 1/K | 0.000772 1/K
